Where two headings read alike, the source gives them in different places. Marks after values point to notes of the source that are not given here.

On to `CC(C)Nc1nccc(-c2cn(CC(F)(F)F)nc2-c2ccc(Cl)s2)n1` [Example 124], for which the log p (pH 2.7) is 3.11^[b].
As for `CCOC(=O)n1cc(-c2ccncc2)c(-c2ccc(Cl)s2)n1` [Example 87], where the note is “pH 2.7”, the log p was 1.97^[b].
As to `ClCCn1cc(-c2ccncc2)c(-c2sccc2Cl)n1` [Example 134], for the setting “pH 2.7”, the log p was 1.22^[b] and the “logP value of the minor isomer” value is recorded as “(1.29)”.
`CC(C)Nc1nccc(-c2cn(CCC#N)nc2-c2ccc(Cl)s2)n1` [Example 140]: the log p (pH 2.7) is 2.15^[b].
On to `CC(C)CC(C)n1ncc(-c2ccncn2)c1-c1ccc(Cl)s1` (stereo not shown) [Example 28], for which the log p (pH 2.7) is 4.29^[b].
Regarding `CCC(C)n1cc(-c2ccnc(Br)c2)c(-c2ccc(Cl)s2)n1` (stereo not shown) [Example 100], under “pH 2.7”, the log p is 5.03^[b].
For the compound `Fc1cccc(Cn2cc(-c3ccncc3)c(-c3cc4ccsc4s3)n2)c1F` [Example 327], the log p (pH 2.7) was 1.75^[b].
For `FC(F)(F)c1ccc(-c2c(-c3ccncc3)cnn2C2CCCCO2)s1` (stereo not shown) [4-[1-(2-tetrahydropyrannyl)-5-(5-trifluoromethyl-2-thienyl)-1H-pyrazol-4-yl]pyridine], where the note is “pH 2.7”, the “logP (pH2.7)” value came to 1.96.
With `CC(C)Cn1ncc(-c2cc[n+]([O-])c(N)c2)c1-c1ccc(Cl)s1` [2-Amino-4-[1-isobutyl-5-(5-chloro-2-thienyl)-1H-pyrazol-4-yl]pyridine N oxide], where the note is “pH 2.7”, the “logP (pH2.7)” value turned out to be 2.21.
For `CC(C)(C)Cn1ncc(-c2ccncn2)c1-c1ccc(Cl)s1` [Example 34], the log p (pH 2.7) was 3.82^[b].
For `Cn1cc(-c2ccncc2)c(-c2cc(Cl)cs2)n1` [Example 125], for the setting “pH 2.7”, the log p is 1.11^[b] and the “logP value of the minor isomer” value was “(1.05)”.
As for `ClC(Cl)=CCn1cc(-c2ccncc2)c(-c2cc3ccsc3s2)n1` [Example 335], the log p (pH 2.7) was 1.67^[b].
For the compound `COCC(C)Nc1nccc(-c2cn(C(C)C)nc2-c2ccc(Cl)s2)n1` (stereo not shown) [Example 178], the log p (pH 2.3) was 2.82^[a].
With `C#CCNc1cc(-c2cn(CC(C)C)nc2-c2ccc(Cl)s2)cc[n+]1[O-]` [2-Propargylamino-4-[1-isobutyl-3-(5-chloro-2-thienyl)-1H-pyrazol-4-yl]pyridine-N-oxyde], where the note is “pH 2.7”, the “logP (pH2.7)” value was found to be 2.70.
On to `CCC(C)Nc1nccc(-c2cn(C(C)C)nc2-c2ccc(Cl)s2)n1` (stereo not shown) [Example 182], for which the log p (pH 2.3) was 3.15^[a].
Turning to `CC#Cc1c(-c2ccncc2)c(-c2ccc(Cl)s2)nn1C(C)C` [4-[(3/5)-(5-Chloro-2-thienyl)-1-isopropyl-5-(prop-1-yn-1-yl)-1H-pyrazol-4-yl]pyridine], for the setting “pH 2.7”, the “logP (pH2.7)” value is recorded as 2.78 and the “logP (pH2.7), minor isomer” value was found to be 2.21.
Turning to `CCC(CC)n1ncc(-c2ccncc2)c1-c1ccc(Cl)s1` [Example 41], the log p (pH 2.3) was 2.08^[a].
With `CSc1ccc(-c2c(-c3ccncc3)cnn2C(C)C)s1` [Example 295], the log p (pH 2.7) is 1.78^[b].
As for `Cn1cc(-c2ccncc2)c(-c2sccc2Cl)n1` [Example 142], for the setting “pH 2.7”, the log p is 0.78^[b] and the “logP value of the minor isomer” value is listed as “(0.88)”.
The corresponding values for `C=CCn1cc(-c2ccncc2)c(-c2ccc(Br)s2)n1` [Example 383] are 1.82^[b] and “(1.73)”.
For the compound `CC(C)Cn1cc(-c2ccnc(N(Cc3ccccc3)C(=O)C(C)C)n2)c(-c2ccc(Cl)s2)n1` [Example 94], where the note is “pH 2.3”, the log p is 5.88^[a].
`CCC(C)n1cc(-c2ccncc2)c(-c2sccc2Cl)n1` (stereo not shown) [Example 132]: for the setting “pH 2.7”, the log p is 1.56^[b] and the “logP value of the minor isomer” value is “(1.67)”.
As to `[O-][n+]1ccc(-c2c[nH]nc2-c2ccc(Cl)s2)cc1Cl` [2-Chloro-4-[3-(5-chloro-2-thienyl)-1H-pyrazol-4-yl]pyridine N oxyde], under “pH 2.7”, the “logP (pH2.7)” value is on record as 1.57.
Turning to `Clc1ccsc1-c1nn(C2CCCC2)cc1-c1ccncc1` [Example 160], the log p (pH 2.7) is 1.76^[b].
Regarding `CC(C)C(C)n1ncc(-c2ccncn2)c1-c1ccc(Cl)s1` (stereo not shown) [Example 32], the log p (pH 2.7) was 3.8^[b].
For the compound `Clc1ccc(-c2n[nH]c(C3CC3)c2-c2ccncc2)s1` [Example 67], the log p (pH 2.7) is 1.36^[b].
Take `CC(CN(C)C)Cn1cc(-c2ccnc(Cl)c2)c(-c2ccc(Cl)s2)n1` (stereo not shown) [Example 91]: for the setting “pH 2.3”, the log p is 1.84^[a] and the “logP value of the minor isomer (in parenthesis in column Isomer ratio [d])” value is “(1.74)”.
Regarding `CCn1cc(-c2ccnc(NS(=O)(=O)N(C)C)c2)c(-c2ccc(Cl)s2)n1` [Example 219], where the note is “pH 2.7”, the log p was 2.59^[b].
As to `Clc1sc(-c2n[nH]cc2-c2ccncc2)c(Cl)c1Cl` [Example 2], the log p (pH 2.7) was 1.52^[b].
The same measure, in the same setting: the figure for `CC(C)Cn1cc(-c2ccncc2)c(-c2ccc(C#N)s2)n1` [Example 404] is 1.74^[b].
Still for that read-out and setting: the figure for `Fc1cccc(Cn2cc(-c3ccncc3)c(-c3ccc(Cl)s3)n2)c1F` [Example 325] is 2.39^[b].
In the case of “4-[3-(5-Chloro-2-thienyl)-1-isobutyl-1H-pyrazol-4-yl]-N-propylpyridin-2-amine 1-oxide”, the “logP (pH2.7)” value (pH 2.7) is 1.90.
As to `CC(C)Cn1cc(-c2ccnc(N)c2)c(-c2ccc(Cl)s2)n1` [2-Amino-4-[1-isobutyl-(3/5)-(5-chloro-2-thienyl)-1H-pyrazol-4-yl]pyridine], where the note is “pH 2.7”, the “logP (pH2.7)” value is listed as 2.04 and the “logP (pH2.7), minor isomer” value is 1.93.
Consider `CC(C)n1cc(-c2ccncc2)c(-c2sccc2Cl)n1` [Example 158], for which the log p (pH 2.7) was 1.38^[b].
In the case of `Clc1ccc(-c2c(-c3ccncc3)cnn2-c2ccccc2)s1` [Example 23], the log p (pH 2.7) is 1.88^[b].
With `Clc1nccc(-c2c[nH]nc2-c2ccc(Cl)s2)n1` [Example 81], the log p (pH 2.3) was 2.64^[a].
Regarding `CC(C)=CCn1cc(-c2ccncc2)c(-c2ccc(Br)s2)n1` [Example 355], under “pH 2.7”, the log p is 2.35^[b] and the “logP value of the minor isomer (between parenthesis, Isomer ratio column)” value is on record as “(2.11)”.
In the case of `[O-][n+]1ccc(-c2c[nH]nc2-c2ccc(Cl)s2)cc1Cl` [Example 59], the log p (pH 7.8) is 1.57^[c].
For `Clc1ccc(Cn2cc(-c3ccncc3)c(-c3cc4ccsc4s3)n2)s1` [Example 339], under “pH 2.7”, the log p is 2.57^[b] and the “logP value of the minor isomer (between parenthesis, Isomer ratio column)” value is given as “(2.35)”.
As to “N-Butyl-5-[4-(pyridin-4-yl)-1H-pyrazol-3-yl]thiophene-2-carboxamide hydrochloride”, the “logP (pH2.7)” value (pH 2.7) is listed as 1.47.
With `CCC(C)n1cc(-c2ccnc(C#CC3CC3)c2)c(-c2ccc(Cl)s2)n1` (stereo not shown) [Example 111], the log p (pH 2.7) was 4.56^[b].
For “4-[5-Bromo-3-(5-chloro-2-thienyl)-1-(4-methoxybenzyl)-1H-pyrazol-4-yl]pyridine and 4-[3-bromo-5-(5-chloro-2-thienyl)-1-(4-methoxybenzyl)-1H-pyrazol-4-yl]pyridine”, where the note is “pH 2.7”, the “logP (pH2.7)” value is on record as 3.53 and the “logP (pH2.7), minor isomer” value is given as 3.0.
As to `N#CCn1cc(-c2ccncc2)c(-c2sccc2Cl)n1` [Example 137], where the note is “pH 2.7”, the log p is 0.93^[b] and the “logP value of the minor isomer” value was “(0.78”.
Consider `CC(C)Cn1cc(-c2cc[n+]([O-])c(NCc3ccccc3)c2)c(-c2ccc(Cl)s2)n1` [2-Benzylamino-4-[1-isobutyl-3-(5-chloro-2-thienyl)-1H-pyrazol-4-yl]pyridine N oxide], for which, for the setting “pH 2.7”, the “logP (pH2.7)” value is on record as 3.65.
For the compound `FC(F)Cn1cc(-c2ccncc2)c(-c2cc(Cl)cs2)n1` [Example 157], the log p (pH 2.7) was 1.42^[b].
As for `C=CCn1cc(-c2ccnc(NC(C)C)n2)c(-c2ccc(Cl)s2)n1` [Example 155], where the note is “pH 2.7”, the log p is 2.68^[b].
Consider `C=CC(C)n1cc(-c2ccncc2)c(-c2sccc2Cl)n1` (stereo not shown) [Example 161], for which the log p (pH 2.7) is 1.51^[b].
For the compound `Clc1ccsc1-c1nn(CCc2ccccc2)cc1-c1ccncc1` [Example 128], where the note is “pH 2.7”, the log p was 1.88^[b] and the “logP value of the minor isomer” value is “(1.84)”.
Regarding `CC(C)n1cc(-c2ccnc(NS(=O)(=O)N(C)C)c2)c(-c2ccc(Cl)s2)n1` [Example 218], the log p (pH 2.7) was 3^[b].
In the case of `Clc1ccc(-c2n[nH]cc2-c2ccnc(NCc3ccccc3)n2)s1` [Example 90], the log p (pH 2.3) was 2.37^[a].
In the case of `CCC(C)n1cc(-c2ccnc(S(C)(=O)=O)n2)c(-c2ccc(Cl)s2)n1` (stereo not shown) [Example 202], the log p (pH 2.3) was 3.52^[a].
Turning to `CC(C)(C)Cn1ncc(-c2ccncc2)c1-c1ccc(Cl)s1` [Example 25], where the note is “pH 2.7”, the log p is 2.17^[b].
In the case of `NNc1nccc(-c2c[nH]nc2-c2ccc(Cl)s2)n1` [Example 78], the log p (pH 2.3) was 2.26^[a].
For `FC(F)Cn1cc(-c2ccncc2)c(-c2sccc2Cl)n1` [Example 127], for the setting “pH 2.7”, the log p was 1.14^[b] and the “logP value of the minor isomer” value is “(1.17)”.
Take `CC(C)Cn1cc(-c2cc[n+]([O-])c(Cl)c2)c(-c2ccc(Cl)s2)n1` [2-Chloro-4-[1-isobutyl-3-(5-chloro-2-thienyl)-1H-pyrazol-4-yl]pyridine-N-oxyde]: the “logP (pH2.7)” value (pH 2.7) was determined as 2.82.
On to `C=CCn1cc(-c2ccncc2)c(-c2ccc(F)s2)n1` [Example 382], for which, under “pH 2.7”, the log p was 1.54^[b] and the “logP value of the minor isomer” value is on record as “(1.48)”.
As for `CC(C)n1ncc(-c2ccncn2)c1-c1ccc(Cl)s1` [Example 30], the log p (pH 2.7) is 2.94^[b].
For `CC(C)CCn1cc(-c2ccncn2)c(-c2ccc(Cl)s2)n1` [Example 27], under “pH 2.7”, the log p was 3.8^[b].
Take `CC(=O)Nc1cc(-c2cn(C)nc2-c2ccc(NC(C)=O)s2)ccn1` [Example 216]: where the note is “pH 2.7”, the log p is 0.76^[b].
On the same count and under the same terms, then `Clc1ccc(-c2c(-c3ccncc3)cnn2C2CCCCC2)s1` [Example 12], with 2.26^[b].
Consider `Fc1ccccc1Cn1cc(-c2ccncc2)c(-c2sccc2Cl)n1` [Example 113], for which, under “pH 2.7”, the log p was 1.74^[b] and the “logP value of the minor isomer (in parenthesis in column Isomer ratio [d])” value is on record as “(1.76)”.
In the case of `CC(C)n1ncc(-c2ccncc2)c1-c1ccc(Cl)s1` [Example 39], the log p runs as follows: (pH 2.3) 1.63^[a];; (pH 2.7) 1.7^[b].
Regarding `Clc1ccc(-c2n[nH]c(Br)c2-c2ccncc2)s1` [Example 44], under “pH 2.7”, the log p was 1.4^[b].
For `CC(C)n1cc(-c2ccncc2)c(-c2cccs2)n1` [4-[1-Isopropyl-(3/5)-(2-thienyl)-1H-pyrazol-4-yl]pyridine], under “pH 2.7”, the “logP (pH2.7)” value is 1.27 and the “logP (pH2.7), minor isomer” value is reported as 1.33.

The values are drawn from patent US8685974B2 (Bayer CropScience AG, priority 2009, dated 2014).
